test: recombinant barcode read abundance after kanamycin selection (control-corrected) (log10(CPM+1)); higher = more efficient recombination; sequences stand for … in AGTGCAGAGAAAATCGGCCAGTTTTCTCTGCCTGCAGTCCGCATGCCGT…AGATTTATGCAGCGGACTGCCTTTCTCCCAAAGTGATAAACCGGACAGTATCATGGACCGGTTTTCCCGGTAATCCGTATTTGCAAGGTTGGTTTCACT; site = the 11-nt target
Summary of the method: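 IS621 bridge RNA target-binding loops were paired with targets in a pooled library tested in E. coli. After co-electroporation with a donor plasmid, cells were plated in two replicates on chloramphenicol/ampicillin LB agar (control) and on chloramphenicol/ampicillin/kanamycin carrying 0.1 mM IPTG. Barcodes at recombinant junctions were counted as counts per million, averaged and control-corrected to give recombination efficiency. Values are log10(CPM+1).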
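Further: IS621 recombinase and bridge RNA in Escherichia coli cells.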

First: CTATATACTTGGGTTCTAACCTGTTGCTT (site CTATATACTAA)
Second: CTATGAACTTGGGTTCTAACCTGTTGCCA (site CTATGAACTTG)
The “recombinant barcode read abundance (log10)” value of the first is higher: 0.804 for the first, 0.283 for the second.

“CTATGAACTTGGGTTCTAACCTGTTGCCA (site GACATTCCTAA)” and “CTATGACCTTGGGTTCTAACCTGTTGCAT (site CTATGACCTAA)” are within 0.2 log units of each other in “recombinant barcode read abundance (log10)” value: 0.0769 for the first, 0.0613 for the second.

“CTATGACCTTGGGTTCTAACCTGTTGCAT (site CTATGACCTAC)” and “CTATGACCTTGGGTTCTAACCTGTTGCAT (site CTATGACCTAG)” are within 0.2 log units of each other in “recombinant barcode read abundance (log10)” value: 0.139 for the first, 0.19 for the second.

Compared with “CTATGACCTTGGGTTCTAACCTGTTGCAT (site CTATGACCTAT)”, “CTATGACCTTGGGTTCTAACCTGTTGCGT (site CTATGACCTAA)” is lower in “recombinant barcode read abundance (log10)” value: 0.568 for the first, 0.191 for the second.

First: CTATGACCTTGGGTTCTAACCTGTTGCGT (site CTATGACCTAC)
Second: CTATGACCTTGGGTTCTAACCTGTTGCGT (site CTATGACCTAG)
The “recombinant barcode read abundance (log10)” value of the first is higher: 2.11 for the first, 0.211 for the second.

“CTATGACCTTGGGTTCTAACCTGTTGCGT (site CTATGACCTAT)” and “CTATGACCTTGGGTTCTAACCTGTTGCTT (site CTATGACCTAA)” are within 0.2 log units of each other in “recombinant barcode read abundance (log10)” value: 1.26 for the first, 1.4 for the second.

Going from “CTATGACCTTGGGTTCTAACCTGTTGCTT (site CTATGACCTAC)” to “CTATGACCTTGGGTTCTAACCTGTTGCTT (site CTATGACCTAG)”, the “recombinant barcode read abundance (log10)” value rises from 0.0411 to 1.26.

First: CTATGACCTTGGGTTCTAACCTGTTGCTT (site CTATGACCTAT)
Second: CTATGGACTTGGGTTCTAACCTGTTGCAA (site CTATGGACTAT)
The “recombinant barcode read abundance (log10)” value of the first is higher: 0.394 for the first, 0.0174 for the second.

“CTATGGACTTGGGTTCTAACCTGTTGCAA (site CTATGGACTCT)” and “CTATGGACTTGGGTTCTAACCTGTTGCAA (site CTATGGACTGT)” are within 0.2 log units of each other in “recombinant barcode read abundance (log10)” value: 0.23 for the first, 0.274 for the second.

Going from “CTATGGACTTGGGTTCTAACCTGTTGCAA (site CTATGGACTTT)” to “CTATGGACTTGGGTTCTAACCTGTTGCAT (site CTATGGACTAT)”, the “recombinant barcode read abundance (log10)” value falls from 1.39 to 0.348.

Going from “CTATGGACTTGGGTTCTAACCTGTTGCAT (site CTATGGACTCT)” to “CTATGGACTTGGGTTCTAACCTGTTGCAT (site CTATGGACTGT)”, the “recombinant barcode read abundance (log10)” value falls from 0.614 to 0.217.

Compared with “CTATGGACTTGGGTTCTAACCTGTTGCAT (site CTATGGACTTT)”, “CTATGTCCTTGGGTTCTAACCTGTTGCGT (site CTATGTCCTAC)” is higher in “recombinant barcode read abundance (log10)” value: 0.0336 for the first, 1.44 for the second.

“CTATGTCCTTGGGTTCTAACCTGTTGCGT (site GGATGTCCTAC)” and “CTATGTGCTTGGGTTCTAACCTGTTGCAT (site CTATGTGCTAA)” are within 0.2 log units of each other in “recombinant barcode read abundance (log10)” value: 0.228 for the first, 0.295 for the second.

“CTATGTGCTTGGGTTCTAACCTGTTGCAT (site CTATGTGCTAC)” and “CTATGTGCTTGGGTTCTAACCTGTTGCAT (site CTATGTGCTAG)” are within 0.2 log units of each other in “recombinant barcode read abundance (log10)” value: 0.168 for the first, 0.0201 for the second.

Compared with “CTATGTGCTTGGGTTCTAACCTGTTGCAT (site CTATGTGCTAT)”, “CTATTCACTTGGGTTCTAACCTGTTGCCT (site CTATTCACTAG)” is higher in “recombinant barcode read abundance (log10)” value: 0.109 for the first, 1.34 for the second.

“CTATTCACTTGGGTTCTAACCTGTTGCCT (site CTATTCCCTAG)” and “CTATTCACTTGGGTTCTAACCTGTTGCCT (site CTATTCGCTAG)” are within 0.2 log units of each other in “recombinant barcode read abundance (log10)” value: 0.0733 for the first, 0.0529 for the second.

“CTATTCACTTGGGTTCTAACCTGTTGCCT (site CTATTCTCTAG)” and “CTATTCTCTTGGGTTCTAACCTGTTGCTA (site CTATACTCTTG)” are within 0.2 log units of each other in “recombinant barcode read abundance (log10)” value: 0.091 for the first, 0.115 for the second.

Going from “CTATTCTCTTGGGTTCTAACCTGTTGCTA (site CTATTCTCTTA)” to “CTATTGTCTTGGGTTCTAACCTGTTGCGT (site CTATTGTCTAC)”, the “recombinant barcode read abundance (log10)” value rises from 1.62 to 2.78.

Going from “CTATTGTCTTGGGTTCTAACCTGTTGCGT (site CTATTGTCTCC)” to “CTATTGTCTTGGGTTCTAACCTGTTGCGT (site CTATTGTCTGC)”, the “recombinant barcode read abundance (log10)” value rises from 0.019 to 0.475.

Compared with “CTATTGTCTTGGGTTCTAACCTGTTGCGT (site CTATTGTCTTC)”, “CTATTTACTTGGGTTCTAACCTGTTGCGG (site CTATTTACTCC)” is higher in “recombinant barcode read abundance (log10)” value: 0.0685 for the first, 0.781 for the second.

“CTATTTACTTGGGTTCTAACCTGTTGCGG (site TGTCGGCCTAA)” and “CTATTTCCTTGGGTTCTAACCTGTTGCCT (site CGGTTTCCTAG)” are within 0.2 log units of each other in “recombinant barcode read abundance (log10)” value: 0.0533 for the first, 0.032 for the second.

“CTATTTCCTTGGGTTCTAACCTGTTGCCT (site CTATTTCCTAG)” and “CTCAAACCTTGGGTTCTAACCTGTTGCTT (site CTCAAACCTAA)” are within 0.2 log units of each other in “recombinant barcode read abundance (log10)” value: 0.284 for the first, 0.355 for the second.

Going from “CTCAAACCTTGGGTTCTAACCTGTTGCTT (site CTCACACCTAA)” to “CTCAAGACTTGGGTTCTAACCTGTTGCGG (site CTCAAGACTCC)”, the “recombinant barcode read abundance (log10)” value rises from 0.15 to 2.5.

First: CTCAAGACTTGGGTTCTAACCTGTTGCGG (site CTCTAGACTCA)
Second: CTCACACCTTGGGTTCTAACCTGTTGCAG (site CTCACACCTCT)
The “recombinant barcode read abundance (log10)” value of the first is lower: 0.219 for the first, 0.968 for the second.

“CTCACACCTTGGGTTCTAACCTGTTGCAG (site TGTCATGCTAC)” and “CTCACGCCTTGGGTTCTAACCTGTTGCTT (site CACACGCCTAG)” are within 0.2 log units of each other in “recombinant barcode read abundance (log10)” value: 0.331 for the first, 0.228 for the second.

“CTCACGCCTTGGGTTCTAACCTGTTGCTT (site CTCACGCCTAA)” and “CTCAGGTCTTGGGTTCTAACCTGTTGCCA (site CTCAGGTCTAG)” are within 0.2 log units of each other in “recombinant barcode read abundance (log10)” value: 0.237 for the first, 0.18 for the second.

“CTCAGGTCTTGGGTTCTAACCTGTTGCCA (site CTCAGGTCTTG)” and “CTCATTCCTTGGGTTCTAACCTGTTGCAT (site CTCATTCCTAA)” are within 0.2 log units of each other in “recombinant barcode read abundance (log10)” value: 0.193 for the first, 0.0718 for the second.

“CTCATTCCTTGGGTTCTAACCTGTTGCAT (site CTCATTCCTAC)” and “CTCATTCCTTGGGTTCTAACCTGTTGCAT (site CTCATTCCTAG)” are within 0.2 log units of each other in “recombinant barcode read abundance (log10)” value: 0.0351 for the first, 0.112 for the second.

First: CTCATTCCTTGGGTTCTAACCTGTTGCAT (site CTCATTCCTAT)
Second: CTCATTCCTTGGGTTCTAACCTGTTGCTT (site CTCATTCCTAA)
The “recombinant barcode read abundance (log10)” value of the first is higher: 0.523 for the first, 0.211 for the second.

Compared with “CTCATTCCTTGGGTTCTAACCTGTTGCTT (site CTCATTCCTAC)”, “CTCATTCCTTGGGTTCTAACCTGTTGCTT (site CTCATTCCTAG)” is lower in “recombinant barcode read abundance (log10)” value: 0.482 for the first, 0.0511 for the second.

“CTCATTCCTTGGGTTCTAACCTGTTGCTT (site CTCATTCCTAT)” and “CTCCATCCTTGGGTTCTAACCTGTTGCCT (site CTCCATACTAG)” are within 0.2 log units of each other in “recombinant barcode read abundance (log10)” value: 0.0615 for the first, 0 for the second.

First: CTCCATCCTTGGGTTCTAACCTGTTGCCT (site CTCCATCCTAG)
Second: CTCCATCCTTGGGTTCTAACCTGTTGCCT (site CTCCATGCTAG)
The “recombinant barcode read abundance (log10)” value of the first is higher: 0.898 for the first, 0.0326 for the second.

Compared with “CTCCATCCTTGGGTTCTAACCTGTTGCCT (site CTCCATTCTAG)”, “CTCCATGCTTGGGTTCTAACCTGTTGCCT (site CTCCATACTAG)” is higher in “recombinant barcode read abundance (log10)” value: 0.0176 for the first, 0.325 for the second.

Going from “CTCCATGCTTGGGTTCTAACCTGTTGCCT (site CTCCATCCTAG)” to “CTCCATGCTTGGGTTCTAACCTGTTGCCT (site CTCCATGCTAG)”, the “recombinant barcode read abundance (log10)” value rises from 0.312 to 1.19.

“CTCCATGCTTGGGTTCTAACCTGTTGCCT (site CTCCATTCTAG)” and “CTCCATTCTTGGGTTCTAACCTGTTGCCT (site CTCCATACTAG)” are within 0.2 log units of each other in “recombinant barcode read abundance (log10)” value: 0.0894 for the first, 0.0751 for the second.

“CTCCATTCTTGGGTTCTAACCTGTTGCCT (site CTCCATCCTAG)” and “CTCCATTCTTGGGTTCTAACCTGTTGCCT (site CTCCATGCTAG)” are within 0.2 log units of each other in “recombinant barcode read abundance (log10)” value: 0.314 for the first, 0.129 for the second.

First: CTCCATTCTTGGGTTCTAACCTGTTGCCT (site CTCCATTCTAG)
Second: CTCCCGACTTGGGTTCTAACCTGTTGCGC (site AGAGTAGCTTA)
The “recombinant barcode read abundance (log10)” value of the first is higher: 0.739 for the first, 0.119 for the second.

Compared with “CTCCCGACTTGGGTTCTAACCTGTTGCGC (site CTCCCGACTGC)”, “CTCCCTGCTTGGGTTCTAACCTGTTGCCT (site CTCCCTGCTAG)” is lower in “recombinant barcode read abundance (log10)” value: 2.08 for the first, 1.1 for the second.

“CTCCCTGCTTGGGTTCTAACCTGTTGCCT (site GAGGTCCCTCC)” and “CTCCGCCCTTGGGTTCTAACCTGTTGCTT (site CTCCGACCTAA)” are within 0.2 log units of each other in “recombinant barcode read abundance (log10)” value: 0.0158 for the first, 0.121 for the second.

Going from “CTCCGCCCTTGGGTTCTAACCTGTTGCTT (site CTCCGCCCTAA)” to “CTCCGCCCTTGGGTTCTAACCTGTTGCTT (site CTCCGGCCTAA)”, the “recombinant barcode read abundance (log10)” value falls from 0.578 to 0.106.

“CTCCGCCCTTGGGTTCTAACCTGTTGCTT (site CTCCGTCCTAA)” and “CTCCGCTCTTGGGTTCTAACCTGTTGCCT (site ATCCGCTCTAG)” are within 0.2 log units of each other in “recombinant barcode read abundance (log10)” value: 0.0629 for the first, 0.211 for the second.

Compared with “CTCCGCTCTTGGGTTCTAACCTGTTGCCT (site CTCCGCTCTAG)”, “CTCCGCTCTTGGGTTCTAACCTGTTGCCT (site GTCCGCTCTAG)” is lower in “recombinant barcode read abundance (log10)” value: 2.28 for the first, 0.0686 for the second.

“CTCCGCTCTTGGGTTCTAACCTGTTGCCT (site TTCCGCTCTAG)” and “CTCCGTCCTTGGGTTCTAACCTGTTGCGT (site CTCCGCCCTAG)” are within 0.2 log units of each other in “recombinant barcode read abundance (log10)” value: 0.113 for the first, 0.23 for the second.
